In the NIST ThermoML archive (doi:10.1021/je900127m):
± gives the expanded uncertainty stated by the source.

Assay: xn = mol fraction of the nth substance listed
Conditions: 313.15 K, Fluid (supercritical or subcritical phases), Bellows volumetry

CCO [ethanol] + O=C=O
x2 = 0
Conditions | mass density [kg/m3]
1000 kPa | 773.1 ± 0.2
2000 kPa | 773.9 ± 0.2
3000 kPa | 774.8 ± 0.2
4000 kPa | 775.5 ± 0.2
5000 kPa | 776.4 ± 0.2
6000 kPa | 777.2 ± 0.2
7000 kPa | 778 ± 0.2
8000 kPa | 778.8 ± 0.2
9000 kPa | 779.6 ± 0.2
10000 kPa | 780.4 ± 0.2

O=C=O [carbon dioxide] + CCO
Conditions | mass density [kg/m3]
1000 kPa, x1 = 1 | 17.9 ± 0.2
2000 kPa, x1 = 0.1 | 787.2 ± 0.3
2000 kPa, x1 = 1 | 37.1 ± 0.2
3000 kPa, x1 = 0.1 | 788.2 ± 0.3
3000 kPa, x1 = 1 | 58.7 ± 0.2
4000 kPa, x1 = 0.1 | 789.2 ± 0.3
4000 kPa, x1 = 0.2 | 799.4 ± 0.3
4000 kPa, x1 = 1 | 83.5 ± 0.2
5000 kPa, x1 = 0.1 | 790.2 ± 0.3
5000 kPa, x1 = 0.2 | 800.6 ± 0.3
5000 kPa, x1 = 1 | 112.7 ± 0.2
6000 kPa, x1 = 0.1 | 791.1 ± 0.3
6000 kPa, x1 = 0.2 | 801.9 ± 0.3
6000 kPa, x1 = 0.3 | 811.2 ± 0.3
6000 kPa, x1 = 0.4 | 816.6 ± 0.2
6000 kPa, x1 = 1 | 148.8 ± 0.2
7000 kPa, x1 = 0.1 | 792.1 ± 0.3
7000 kPa, x1 = 0.2 | 803.1 ± 0.3
7000 kPa, x1 = 0.3 | 812.7 ± 0.3
7000 kPa, x1 = 0.4 | 818.7 ± 0.2
7000 kPa, x1 = 0.5 | 821.1 ± 0.2
7000 kPa, x1 = 1 | 197.3 ± 0.2
8000 kPa, x1 = 0.1 | 793.1 ± 0.3
8000 kPa, x1 = 0.2 | 804.2 ± 0.3
8000 kPa, x1 = 0.3 | 814.3 ± 0.3
8000 kPa, x1 = 0.4 | 820.8 ± 0.2
8000 kPa, x1 = 0.5 | 824 ± 0.2
8000 kPa, x1 = 0.6 | 818.8 ± 0.3
8000 kPa, x1 = 0.7 | 804.5 ± 0.5
8000 kPa, x1 = 0.8 | 771.1 ± 3.7
8000 kPa, x1 = 1 | 276.7 ± 0.4
9000 kPa, x1 = 0.1 | 794 ± 0.3
9000 kPa, x1 = 0.2 | 805.3 ± 0.3
9000 kPa, x1 = 0.3 | 815.7 ± 0.3
9000 kPa, x1 = 0.4 | 822.8 ± 0.2
9000 kPa, x1 = 0.5 | 826.8 ± 0.2
9000 kPa, x1 = 0.6 | 823 ± 0.3
9000 kPa, x1 = 0.7 | 811.5 ± 0.4
9000 kPa, x1 = 0.8 | 784.8 ± 0.9
9000 kPa, x1 = 0.899 | 729.1 ± 1.5
9000 kPa, x1 = 0.95 | 667 ± 4.9
9000 kPa, x1 = 1 | 483.4 ± 0.4
10000 kPa, x1 = 0.1 | 795 ± 0.3
10000 kPa, x1 = 0.2 | 806.6 ± 0.3
10000 kPa, x1 = 0.3 | 817.2 ± 0.3
10000 kPa, x1 = 0.4 | 824.7 ± 0.2
10000 kPa, x1 = 0.5 | 829.4 ± 0.2
10000 kPa, x1 = 0.6 | 827 ± 0.2
10000 kPa, x1 = 0.7 | 817.8 ± 0.4
10000 kPa, x1 = 0.8 | 795.8 ± 0.7
10000 kPa, x1 = 0.899 | 752.3 ± 1.1
10000 kPa, x1 = 0.95 | 709.8 ± 2.5
10000 kPa, x1 = 1 | 627.4 ± 0.4
